# “And” between values parts separate entries of the source, which are not always exact repeats. Identical values can stand only once. Like-named read-outs stand apart in the source and are kept apart here.
# Key:
# [1] = target: T1, Bacillus subtilis glutamine PRPP amidotransferase, wild type (Bacillus subtilis, UniProt P00497); experiment: Nucleotide binding by equilibrium dialysis, wild type enzyme; settings: for Capacity: at saturation
# T1 construct: Enzymes of the B. subtilis class are synthesized with an NH2 terminal propeptide; made in house; host or cells: E. coli strain TX158 (purF), plasmid pGZ1
# Method: Plasmid pGZ1 was used for production of the wild type enzyme. […] For construction of mutants, the EcoRI-HindIII purF^+ DNA was transferred to pUC118 to yield pBsF. […] The resulting plasmids were named pBsF/S283A, pBsF/K305Q, pBsF/R307Q, and pBsF/S347A.
# For enzyme purification, all buffers were sparged with nitrogen gas prior to use in order to minimize oxidation of the enzyme's Fe-S cluster. All steps were carried out at 4° C. Cells were resuspended in 4 mL/gram of buffer A [50 mM Tris-HCl (pH 8.0), 10 mM MgCl2, 0.1 mM EDTA, 5 mM DTT, and 2 mM AMP] containing 1 mM PMSF, and were disrupted by two passes through a French Press. The cell extract was obtained by centrifugation for 1 h at 27,000 g. Protamine sulfate (5 mg per gram of cells) was added to the extract to precipitate DNA. […] After centrifugation, enzyme in the brown pellet was recovered by extraction twice with 30% saturated ammonium sulfate. A small colorless pellet that remained was discarded, and the dark brown enzyme solution in buffer A containing residual ammonium sulfate was stored as beads in liquid nitrogen. […] For assays of activity, the enzyme was diluted 1:1000 in […] Tris-HCl (pH 8.0) containing 1 mg/mL bovine serum albumin. For measurements of ligand binding by equilibrium dialysis and for crystallization experiments, the enzyme was dialyzed anaerobically against buffer B [50 mM Tris-HCl (pH 8.0), 0.1 mM EDTA, and 5 mM DTT] prior to being used.
# Nucleotide binding was determined by equilibrium dialysis using chambers of 150 μL that were separated by a 12000-14000 molecular weight dialysis membrane. […] In some experiments, the chambers with radioactive nucleotide also contained a fixed concentration of a second non-radioactive nucleotide. The other chamber contained 50 mM Tris-HCl (pH 7.5) and 50-200 μM enzyme, calculated as the subunit concentration, in a volume of 100 μL. Dialysis was carried out for 20 h at room temperature (˜22° C.) in a rotating apparatus. Samples of 80 μL were retrieved from each chamber and were counted for radioactivity. All experiments were performed in an anaerobic glovebox. […] Equilibrium binding data were fit to the Hill equation (Y=C [free ligand]^n/[…]+[free ligand]^n, where Y is the fractional saturation, C is the binding capacity, Kd is the dissociation constant, and n is the Hill coefficient) by nonlinear regression using Ultrafit software (Biosoft, Cambridge, UK).
# [2] = target: T2, Bacillus subtilis glutamine PRPP amidotransferase variant S347A (Bacillus subtilis, UniProt P00497, S358A); experiment: biochemical; type: biochemical
# T2 construct: Enzymes of the B. subtilis class are synthesized with an NH2 terminal propeptide; made in house; host or cells: E. coli strain TX158 (purF), plasmid pBsF/S347A
# T2 sequence (P00497 12-476 S358A): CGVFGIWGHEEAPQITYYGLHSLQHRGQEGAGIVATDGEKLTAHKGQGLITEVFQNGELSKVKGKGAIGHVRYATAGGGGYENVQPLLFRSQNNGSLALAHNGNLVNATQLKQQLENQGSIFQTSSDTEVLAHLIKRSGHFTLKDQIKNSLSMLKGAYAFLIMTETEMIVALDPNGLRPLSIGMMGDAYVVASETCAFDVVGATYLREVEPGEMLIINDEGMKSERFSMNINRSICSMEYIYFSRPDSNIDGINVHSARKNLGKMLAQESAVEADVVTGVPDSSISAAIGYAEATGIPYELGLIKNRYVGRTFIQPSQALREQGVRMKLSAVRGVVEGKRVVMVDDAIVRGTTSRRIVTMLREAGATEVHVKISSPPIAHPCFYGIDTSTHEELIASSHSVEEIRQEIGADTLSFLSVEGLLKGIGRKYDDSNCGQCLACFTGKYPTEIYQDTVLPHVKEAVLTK
# Excerpt: Plasmid pGZ1 was used for production of the wild type enzyme. Plasmid pGZ1 contains a 1.6 kb EcoRI-HindIII purF^+ fragment (Makaroff, C. A., Zalkin, H., Switzer, R. L., and Vollmer, S. J. (1983) J. Biol. Chem. 258, pp. 10586-10593) inserted into the corresponding sites of pUC18. For construction of mutants, the EcoRI-HindIII purF^+ DNA was transferred to pUC118 to yield pBsF. Mutations were constructed by the method of Kunkel et al. (Kunkel, T. A., Roberts, J. D., and Zakour, R. A. (1987) Methods Enzymol. 154, pp. 367-382) using pBsF phagemid DNA. The resulting plasmids were named pBsF/S283A, pBsF/K305Q, pBsF/R307Q, and pBsF/S347A.
# (§1) Enzyme activity was assayed by measuring the initial rate of formation of the product glutamate. […] Incubation was at 37° C. for 6 min. […] Reactions were quenched in a boiling water bath for 2 min, and glutamate was determined by the glutamate dehydrogenase method.
# (§2) Inhibition by nucleotides was determined by the standard assay to which varied concentrations of nucleotide were added. Synergistic inhibition was determined by varying the concentration of one nucleotide in the presence of a fixed concentration of a second nucleotide. Relative activity (see FIG. 1) refers to the enzyme activity at a given concentration of the varied nucleotide relative to that in the absence of the varied nucleotide. I0.5 values were calculated from plots of relative activity versus varied nucleotide concentration.
# (§3) These modified forms of amidotransferase were analyzed to determine the impact of the mutations on end-product inhibition and enzymatic activity. Inhibition by nucleotides was determined as described in Example 1.
# [3] = target: T3, wild type B. subtilis glutamine PRPP amidotransferase (Bacillus subtilis, UniProt P00497); experiment: Inhibition of enzyme activity by nucleotides (glutamate formation assay), wild type; type: biochemical; settings: wild type; for Hill coefficient determined from inhibition data: PRPP present
# T3 construct: Enzymes of the B. subtilis class are synthesized with an NH2 terminal propeptide and an Fe—S center; made in house; host or cells: E. coli strain TX158 (purF) with plasmid pGZ1
# T3 sequence (P00497 12-476): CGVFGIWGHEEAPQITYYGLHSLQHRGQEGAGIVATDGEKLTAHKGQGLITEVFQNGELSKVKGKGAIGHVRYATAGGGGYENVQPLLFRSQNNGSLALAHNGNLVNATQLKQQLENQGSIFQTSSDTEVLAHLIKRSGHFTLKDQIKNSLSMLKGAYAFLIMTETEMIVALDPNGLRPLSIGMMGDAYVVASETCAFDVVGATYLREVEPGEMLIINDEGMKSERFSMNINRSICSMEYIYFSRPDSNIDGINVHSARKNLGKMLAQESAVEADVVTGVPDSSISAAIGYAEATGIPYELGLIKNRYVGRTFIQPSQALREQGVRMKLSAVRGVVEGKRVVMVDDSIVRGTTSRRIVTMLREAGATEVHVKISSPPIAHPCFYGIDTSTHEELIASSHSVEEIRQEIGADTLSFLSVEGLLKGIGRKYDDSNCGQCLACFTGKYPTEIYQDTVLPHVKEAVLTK
# Method: as §1, §2
# [4] = target: T4, glutamine PRPP amidotransferase S347A mutant enzyme (Bacillus subtilis, UniProt P00497, S358A); type: biochemical
# T4 construct: Enzymes of the B. subtilis class are synthesized with an NH2 terminal propeptide and an Fe—S center; made in house; host or cells: E. coli strain TX158 (purF) with plasmid pBsF/S347A
# T4 sequence (P00497 12-476 S358A): as the sequence (P00497 12-476 S358A) above
# Method: as §1, §2, §3
# [5] = no fixed nucleotide, pH 7.5, ~22° C., half-saturation of the two sites, read-out: Kd (apparent)
# [6] = I0.5, fixed GMP 1.4 mM (footnote c)
# [7] = I0.5, no fixed nucleotide, 2.5 mM PRPP, pH 8.0, 37° C.
# [8] = I0.5, fixed ADP 0.8 mM (footnote c)
Compound,Capacity ([1]; fixed GMP 1.0 mM),"Kd ([1]; fixed GMP 1.0 mM, read-out: Kd)",Hill coefficient ([1]; no fixed nucleotide),Capacity ([1]; no fixed nucleotide),"Kd [1, 5]","IC50 [2, 6]","IC50 [2, 7]",syn. (decreased I0.5 due to a second nucleotide) ([2]; fixed GMP 1.4 mM (footnote c)),Hill coefficient determined from inhibition data [3],syn. ([3]; fixed AMP 0.1 mM),syn. ([3]; fixed GMP 1.0 mM),concentration required for 50% inhibition relative to that of AMP ([3]; single nucleotide),syn. ([4]; fixed GMP 1.4 mM (footnote c)),Capacity ([1]; fixed ADP 0.5 mM),"IC50 [2, 8]",syn. (decreased I0.5 due to a second nucleotide) ([2]; fixed ADP 0.8 mM (footnote c)),syn. ([3]; fixed ADP 0.5 mM),syn. ([4]; fixed ADP 0.8 mM (footnote c)),further results
Nc1ncnc2c1ncn2[C@@H]1O[C@H](COP(=O)(O)OP(=O)(O)O)[C@@H](O)[C@H]1O [ADP],0.94 ± 0.14 Equivalents bound per subunit,11 µM,1.8,1.83 Equivalents bound per subunit and 1.83 ± 0.26 Equivalents bound per subunit,214 µM and ~214 µM,220 µM,8100 µM,37.0 fold,3.8,1.9,59,5 fold,37.0,,,,,,"decrease of Kd in the presence of GMP ([1]; GMP present): 20 fold; Kd ([1]; Kd, GMP fixed at either 0.25 or 1.0 mM): ~10 µM; Capacity ([1]; fixed GMP 0.25 mM): 0.82 ± 0.11 Equivalents bound per subunit; Kd ([1]; fixed GMP 0.25 mM, read-out: Kd): 10.4 ± 2.7 µM; syn. (decreased I0.5 due to a second nucleotide) ([3]; fixed GMP 0.25 mM): 20; syn. ([3]; fixed GMP 0.50 mM): 29.0; syn. ([3]; fixed GMP 2.0 mM): 118.0; syn. ([3]; fixed GMP 4.0 mM): 188.0"
Nc1ncnc2c1ncn2[C@@H]1O[C@H](COP(=O)(O)O)[C@@H](O)[C@H]1O [AMP],1.05 ± 0.21 Equivalents bound per subunit,103 µM,3.4,1.57 Equivalents bound per subunit and 1.57 ± 0.27 Equivalents bound per subunit,240 µM and 239 µM,1800 µM,1500 µM,0.8 fold,3.3-3.8,,1.0,,0.8,approximately 0.4 Equivalents bound per subunit,650 µM,2.3 fold,1.4,2.3,"Capacity ([1]; fixed ADP 0.25 mM): 0.94 ± 0.16 Equivalents bound per subunit; Kd ([1]; fixed ADP 0.25 mM, read-out: Kd): 77 µM; increase of binding affinity by GMP or ADP ([1]; fixed GMP or ADP): 2-3 fold"
Nc1nc2c(ncn2[C@@H]2O[C@H](COP(=O)(O)O)[C@@H](O)[C@H]2O)c(=O)[nH]1 [GMP],,,,,,,14000 µM,,,0.95,,10 fold,,0.98 ± 0.10 Equivalents bound per subunit,440 µM,33.0 fold,63,33.0,"increased binding affinity (C site) relative to AMP ([1]; ADP bound to the A site): 3 fold; increased binding affinity (C site) relative to IMP ([1]; ADP bound to the A site): 3 fold; Kd ([1]; Kd, fixed ADP 0.5 mM): 25 µM; Kd ([1]; Kd, no fixed nucleotide, not detected): > 500 µM; Kd for the free enzyme, estimated ([1]; assuming a synergism of 20-fold): approximately 500 μM; Kd ([1]; no fixed nucleotide, binding too weak to detect, read-out: Kd): > 500 µM; I0.5 increase relative to wild type ([2]; inhibition at the C site): 3 fold; concentration required for 50% inhibition relative to that of ADP ([3]; single nucleotide): 2 fold; I0.5 increase compared to wild type ([4]; inhibition at the C site, ADP fixed): 3 fold"
